The values below come from article PMC6522981, “Structure-based design generated novel hydroxamic acid based preferential HDAC6 lead inhibitor with on-target cytotoxic activity against primary choroid plexus carcinoma” (Journal of Enzyme Inhibition and Medicinal Chemistry, 2019).

Read-outs that look alike come from different tables or passages of the source. Some results are limits rather than exact numbers.

In one assay the target is T1, human HDAC6 (Homo sapiens, UniProt Q9UBN7).
T1 sequence (Q9UBN7 1-1215): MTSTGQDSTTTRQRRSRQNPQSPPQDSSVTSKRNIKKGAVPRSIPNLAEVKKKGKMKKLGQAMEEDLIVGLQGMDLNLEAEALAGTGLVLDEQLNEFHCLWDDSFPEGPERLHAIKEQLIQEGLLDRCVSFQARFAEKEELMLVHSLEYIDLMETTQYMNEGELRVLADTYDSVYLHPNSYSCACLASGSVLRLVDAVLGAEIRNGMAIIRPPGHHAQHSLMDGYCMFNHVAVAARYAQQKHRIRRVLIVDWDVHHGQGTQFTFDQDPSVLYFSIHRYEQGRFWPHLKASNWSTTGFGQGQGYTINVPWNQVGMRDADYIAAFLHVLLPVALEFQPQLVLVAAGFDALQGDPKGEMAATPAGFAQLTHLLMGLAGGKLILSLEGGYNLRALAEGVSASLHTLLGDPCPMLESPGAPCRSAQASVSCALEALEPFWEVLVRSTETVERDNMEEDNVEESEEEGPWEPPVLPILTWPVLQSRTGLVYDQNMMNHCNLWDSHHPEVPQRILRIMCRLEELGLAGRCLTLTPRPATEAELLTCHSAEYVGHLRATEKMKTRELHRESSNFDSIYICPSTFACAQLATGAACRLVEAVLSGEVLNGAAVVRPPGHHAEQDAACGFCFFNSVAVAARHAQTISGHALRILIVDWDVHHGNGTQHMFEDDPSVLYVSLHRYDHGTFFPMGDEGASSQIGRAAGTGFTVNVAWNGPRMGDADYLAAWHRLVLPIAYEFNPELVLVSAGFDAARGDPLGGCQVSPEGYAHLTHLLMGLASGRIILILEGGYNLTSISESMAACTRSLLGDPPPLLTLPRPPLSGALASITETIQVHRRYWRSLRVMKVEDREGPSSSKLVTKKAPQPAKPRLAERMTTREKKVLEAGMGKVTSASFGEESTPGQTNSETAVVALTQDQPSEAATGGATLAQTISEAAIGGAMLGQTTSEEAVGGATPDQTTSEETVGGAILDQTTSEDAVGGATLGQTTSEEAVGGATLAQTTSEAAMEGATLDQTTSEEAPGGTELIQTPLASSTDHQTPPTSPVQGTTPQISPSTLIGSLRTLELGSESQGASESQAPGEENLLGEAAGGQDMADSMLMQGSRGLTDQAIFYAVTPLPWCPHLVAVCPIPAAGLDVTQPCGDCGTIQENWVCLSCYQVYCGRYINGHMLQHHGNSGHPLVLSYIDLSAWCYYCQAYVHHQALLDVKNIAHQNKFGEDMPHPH
Nature of the assay: IC50 of the test inhibitor against HDAC6 (10-dose enzymatic assay). It is filed as biochemical. Details: purchased BPS Bioscience 50006. As to conditions: for activity at 0.0003 µM: 0.0003 µM compound; for activity at 0.001 µM: 0.001 µM compound; for activity at 0.003 µM: 0.003 µM compound; for activity at 0.01 µM: 0.01 µM compound; for activity at 0.03 µM: 0.03 µM compound; for activity at 0.1 µM: 0.1 µM compound; for activity at 0.3 µM: 0.3 µM compound; for activity at 1 µM: 1 µM compound; for activity at 3 µM: 3 µM compound; for activity at 10 µM: 10 µM compound.

In assay [1] the test system is acetylated α-tubulin in HL60 cells. Nature of the assay: Western blot analysis of acetylated α-tubulin in HL60 cells. The class given is cell-based. As to conditions: 24 h. On the procedure:
CCHE-45 cells were treated with 100 µM of test compound for 24 h. HL60 cell line (a kind gift from Professor Azza Kamel from the National Cancer Institute, Cairo University); and is cultured in RPMI-1640 (Lonza, BE-12-702F) supplemented with 10% Fetal Bovine Serum (FBS, Gibco, 12483–020) and 100 U/ml penicillin and 100 µg/ml streptomycin (Lonza, DE17-602F), has also been treated with different concentrations of 10a in twofold serial dilutions for 24 h. Proteins were extracted from CCHE-45 cells using RIPA Lysis and Extraction Buffer (ThermoScientific, cat. No: 89901) containing 100x Halt Protease and […] Inhibitor Cocktail (ThermoScientific, cat. No. 78444). Followed by protein quantification using Bradford Reagent (Pierce Coomassie Plus (Bradford) Assay Reagent) (ThermoScientific, cat. No. 23238). A total of 50 µg proteins were loaded on a 10% SDS page using 30% Acrylamide/Bisacrylamide 19:1(Serva, cat. No. 10679.01) then transferred by semidry transfer method using Bio-Rad Trans-Blot Turbo transfer system on PVDF Transfer Membrane (ThermoScientific, cat. No. 88518). The membranes were incubated overnight at 4 °C in the primary antibodies Mouse monoclonal Anti-Beta Actin antibody (1:100, abcam, ab8224) and Mouse monoclonal Anti-acetylated α Tubulin (1:200, Santa Cruz Biotechnology, sc-23950). […]

[2] abbreviates: Repeat1, read-out: HDAC6 % Activity Repeat1.
The mark [3] stands for this setting: Repeat2, read-out: HDAC6 % Activity Repeat2.

Turning to `O=C(CCCSc1nc2ccccc2n1Cc1ccccc1)NO` [Compound 10a, 4-((1-benzyl-1H-benzo[d]imidazol-2-yl)thio)-N-hydroxybutanamide], at human HDAC6 (setting [2]), the activity at 0.0003 µM came to 100%, the activity at 0.001 µM came to 98%, the activity at 0.003 µM is 100% and the activity at 0.01 µM came to 95%. Further, on human HDAC6 (setting [2]), the activity at 0.03 µM is 93%, the activity at 0.1 µM was found to be 86%, the activity at 0.3 µM is 61% and the activity at 1 µM was determined as 33%. In addition, on human HDAC6 (setting [2]), the activity at 3 µM was 13% and the activity at 10 µM stood at 5%. At human HDAC6 (setting [3]), the activity at 0.0003 µM was 99%, the activity at 0.001 µM came out at 100%, the activity at 0.003 µM was 95% and the activity at 0.01 µM was 100%. Moreover, on human HDAC6 (setting [3]), the activity at 0.03 µM turned out to be 94%, the activity at 0.1 µM came out at 82%, the activity at 0.3 µM amounted to 63% and the activity at 1 µM was 33%. For the same compound, on human HDAC6 (setting [3]), the activity at 3 µM turned out to be 14% and the activity at 10 µM was found to be 5%. Also, the “concentration with significant upregulation of acetylated α-tubulin” value in assay [1] (6.25-100 µM tested) came out at 25 µM. For the same compound, the “concentration from which acetylated α-tubulin is upregulated” value in assay [1] (Figure 6 legend) is on record as at least 12.5 µM.
